Tests used:
[1] = system: Plasmodium berghei; test: Antimalarial activity against Plasmodium berghei schizonts isolated from parasitized erythrocytes infected Wistar rat measured 16 hrs post compound exposure; assay type: functional, organism-based
[2] = Selectivity index, ratio of CC50 for african green monkey Vero cells to IC50 for Leishmania mexicana MHOM/MX/ISETGS; assay type: functional
[3] = Selectivity index, ratio of CC50 for african green monkey Vero cells to IC50 for Plasmodium berghei; assay type: functional
[4] = Selectivity index, ratio of CC50 for african green monkey Vero cells to IC50 for Trichomonas vaginalis GT3; assay type: functional
[5] = Cytotoxicity against african green monkey Vero cells after 72 hrs by MTT assay; assay type: cell-based; details: chlorocebus sabaeus
[6] = system: Leishmania mexicana; test: Antileishmanial activity against Leishmania mexicana MHOM/MX/ISETGS promastigotes after 72 hrs by neubauer chamber; assay type: functional, organism-based
[7] = system: Trypanosoma cruzi; test: Antitrypanosomal activity against Trypanosoma cruzi MHOM/MX/1994/Ninoa epimastigotes after 72 hrs by neubauer chamber; assay type: functional, organism-based
[8] = system: Entamoeba histolytica; test: Ratio of IC50 for pentamidine to compound for Entamoeba histolytica HM1-IMSS; assay type: functional
[9] = system: Trichomonas vaginalis; test: Antiprotozoan activity against Trichomonas vaginalis GT3 trophozoites after 48 hrs; assay type: functional, organism-based; details: GT3, 48 h
[10] = Selectivity index, ratio of CC50 for african green monkey Vero cells to IC50 for Entamoeba histolytica HM1-IMSS; assay type: functional
[11] = system: Giardia intestinalis; test: Antiprotozoan activity against Giardia intestinalis IMSS:0696:1 trophozoites after 48 hrs; assay type: functional, organism-based; details: Giardia duodenalis, IMSS:0696:1, 48 h
[12] = Selectivity index, ratio of CC50 for african green monkey Vero cells to IC50 for Giardia intestinalis IMSS:0696:1; assay type: functional
[13] = system: Entamoeba histolytica; test: Antiprotozoan activity against Entamoeba histolytica HM1-IMSS trophozoites after 48 hrs; assay type: functional, organism-based
[14] = Selectivity index, ratio of CC50 for african green monkey Vero cells to IC50 for Trypanosoma cruzi MHOM/MX/1994/Ninoa; assay type: functional
[15] = system: Trypanosoma cruzi; test: Ratio of IC50 for benzanidazole to compound for Trypanosoma cruzi MHOM/MX/1994/Ninoa; assay type: functional

SMILES | IC50 [1] [µM] | Ratio CC50/IC50 [2] | Ratio CC50/IC50 [3] | Ratio CC50/IC50 [4] | CC50 at 72 h [5] [µM] | IC50 [6] [µM] | IC50 [7] [µM] | Ratio IC50 [8] | IC50 [9] [µM] | Ratio CC50/IC50 [10] | IC50 [11] [µM] | Ratio CC50/IC50 [12] | IC50 [13] [µM] | Ratio CC50/IC50 [14] | Ratio IC50 [15]
CC(=O)Oc1ccccc1C(=O)Nc1nc2ccc([N+](=O)[O-])cc2s1 | 2.42 | 506 | 282 | 811 | 683 | 1.35 | 4.89 | 10 | 0.842 | 194 | 0.297 | 2300 | 3.52 | 140 | 7
O=C(Nc1nc2ccc([N+](=O)[O-])cc2s1)c1ccccc1O | 2.37 | – | 256 | 283 | 607 | > 50 | > 50 | – | 2.15 | 76 | 0.59 | 1029 | 8.02 | – | –
O=C(Cn1ccnc1[N+](=O)[O-])NCc1ccccc1 [BENZNIDAZOLE] | 4.07 | – | – | – | 14 | > 50 | – | – | – | – | – | – | – | – | –
Cc1ncc([N+](=O)[O-])n1CCO [METRONIDAZOLE] | > 50 | – | – | – | 387 | > 50 | > 50 | – | – | – | – | – | – | – | –
CC(=O)Oc1ccccc1C(=O)Nc1ncc([N+](=O)[O-])s1 [NITAZOXANIDE] | 3.89 | 135 | 214 | 12250 | 833 | 6.18 | 18.7 | – | 0.068 | 1653 | 1.21 | 686 | 0.504 | 44 | –
N=C(N)c1ccc(OCCCCCOc2ccc(C(=N)N)cc2)cc1 [PENTAMIDINE] | 2.94 | – | – | – | 47 | – | > 50 | – | – | – | – | – | – | – | –
O=C(Nc1ncc([N+](=O)[O-])s1)c1ccccc1O [TIZOXANIDE] | 5.24 | 63 | 74 | 1839 | 388 | 6.19 | 17.5 | – | 0.211 | 316 | 0.716 | 542 | 1.23 | 22 | –

— ChEMBL document CHEMBL1777759, “Synthesis of benzologues of Nitazoxanide and Tizoxanide: a comparative study of their in vitro broad-spectrum antiprotozoal activity” (Bioorg Med Chem Lett, 2011)
